Results published in PMC9031908 (RSC Advances, 2021).
Where two headings read alike, the source gives them in different places.

Experiments:
5-HT6 receptor [1] = molecular target: T1, 5-HT6 receptor (Homo sapiens, UniProt P50406); experiment: biochemical; type: binding
H3 receptor = H3 receptor (Rattus norvegicus, UniProt Q9QYN8); type: binding
5-HT2A receptor [2] = molecular target: 5-HT2A receptor (Rattus norvegicus, UniProt P14842); experiment: biochemical; type: binding
5-HT1A receptor [3] = molecular target: T2, 5-HT1A receptor (Rattus norvegicus, UniProt P19327); experiment: biochemical; type: binding
T2 sequence (P19327 1-422): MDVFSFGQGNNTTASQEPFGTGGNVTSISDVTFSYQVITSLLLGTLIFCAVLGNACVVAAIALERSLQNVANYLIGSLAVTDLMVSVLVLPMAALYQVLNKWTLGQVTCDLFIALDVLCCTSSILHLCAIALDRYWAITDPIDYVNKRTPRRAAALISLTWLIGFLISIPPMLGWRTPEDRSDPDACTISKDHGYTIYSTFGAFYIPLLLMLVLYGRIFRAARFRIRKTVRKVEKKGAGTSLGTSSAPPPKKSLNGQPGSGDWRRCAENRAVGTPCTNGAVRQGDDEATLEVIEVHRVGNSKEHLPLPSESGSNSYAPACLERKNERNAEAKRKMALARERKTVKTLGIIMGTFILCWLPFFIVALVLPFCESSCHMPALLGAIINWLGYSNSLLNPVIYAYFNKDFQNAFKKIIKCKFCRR

D2 receptor [4] = molecular target: D2 receptor (Rattus norvegicus, UniProt P61169); experiment: biochemical; type: binding
Chain of D2 receptor (Rattus norvegicus, UniProt P61169) (P61169 whole entry): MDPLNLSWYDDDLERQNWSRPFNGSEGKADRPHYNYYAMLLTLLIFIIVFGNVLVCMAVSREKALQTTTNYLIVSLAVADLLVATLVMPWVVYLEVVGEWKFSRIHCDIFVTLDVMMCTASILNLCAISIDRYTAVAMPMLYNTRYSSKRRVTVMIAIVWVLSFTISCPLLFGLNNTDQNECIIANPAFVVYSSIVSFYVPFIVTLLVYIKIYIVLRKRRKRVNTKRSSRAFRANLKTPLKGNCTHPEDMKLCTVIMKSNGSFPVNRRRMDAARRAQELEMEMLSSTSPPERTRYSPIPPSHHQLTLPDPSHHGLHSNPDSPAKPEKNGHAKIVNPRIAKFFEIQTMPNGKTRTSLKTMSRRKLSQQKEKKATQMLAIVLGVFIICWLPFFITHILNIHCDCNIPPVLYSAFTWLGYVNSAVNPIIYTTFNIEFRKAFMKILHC

rats [5] = conditions: oral
mice [6] = experiment: Catalepsy test; type: in vivo; conditions: po
mice [7] = experiment: MK-801-induced hyperactivity; conditions: po
α1 receptor = conditions: read-out: Receptor affinity Ki ± SEM, α1; three experiments, mean ± SEM
D2 receptor [8] = molecular target: D2 receptor (Homo sapiens, UniProt P14416); experiment: cell-based
Chain of D2 receptor (Homo sapiens, UniProt P14416) (P14416 whole entry): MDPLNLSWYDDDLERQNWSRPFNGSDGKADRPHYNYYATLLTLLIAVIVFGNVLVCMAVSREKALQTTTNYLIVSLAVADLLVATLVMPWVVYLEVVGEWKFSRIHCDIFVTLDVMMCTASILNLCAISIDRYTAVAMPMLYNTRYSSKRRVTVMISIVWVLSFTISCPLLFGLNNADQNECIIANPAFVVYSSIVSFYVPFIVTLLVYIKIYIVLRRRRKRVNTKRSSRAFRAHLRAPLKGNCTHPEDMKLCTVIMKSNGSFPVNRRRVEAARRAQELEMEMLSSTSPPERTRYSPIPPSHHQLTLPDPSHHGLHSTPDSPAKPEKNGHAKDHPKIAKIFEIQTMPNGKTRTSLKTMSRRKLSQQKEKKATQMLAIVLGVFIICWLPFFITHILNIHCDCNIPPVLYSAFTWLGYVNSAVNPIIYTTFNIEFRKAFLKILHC

5-HT2A receptor [9] = molecular target: 5-HT2A receptor (Homo sapiens, UniProt P28223); experiment: 5-HT2A functional activity; type: cell-based
Chain of 5-HT2A receptor (Homo sapiens, UniProt P28223) (P28223 whole entry): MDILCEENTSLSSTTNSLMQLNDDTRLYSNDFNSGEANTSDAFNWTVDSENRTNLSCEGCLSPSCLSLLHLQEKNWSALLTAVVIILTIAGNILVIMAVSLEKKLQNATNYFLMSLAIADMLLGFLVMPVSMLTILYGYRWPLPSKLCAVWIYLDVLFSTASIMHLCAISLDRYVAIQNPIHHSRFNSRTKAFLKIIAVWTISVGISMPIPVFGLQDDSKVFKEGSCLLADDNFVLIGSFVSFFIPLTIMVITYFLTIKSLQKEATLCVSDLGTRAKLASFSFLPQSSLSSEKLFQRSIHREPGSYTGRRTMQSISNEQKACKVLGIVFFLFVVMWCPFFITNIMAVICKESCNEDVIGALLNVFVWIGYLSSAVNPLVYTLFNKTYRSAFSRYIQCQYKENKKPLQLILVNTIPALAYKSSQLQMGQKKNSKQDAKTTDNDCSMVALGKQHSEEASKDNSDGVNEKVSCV

mice [10] = experiment: Weight gain after 28 days of administration; type: in vivo; conditions: oral
H1 receptor = H1 receptor (Cavia porcellus, UniProt P31389); experiment: biochemical
Chain of H1 receptor (P31389 whole entry): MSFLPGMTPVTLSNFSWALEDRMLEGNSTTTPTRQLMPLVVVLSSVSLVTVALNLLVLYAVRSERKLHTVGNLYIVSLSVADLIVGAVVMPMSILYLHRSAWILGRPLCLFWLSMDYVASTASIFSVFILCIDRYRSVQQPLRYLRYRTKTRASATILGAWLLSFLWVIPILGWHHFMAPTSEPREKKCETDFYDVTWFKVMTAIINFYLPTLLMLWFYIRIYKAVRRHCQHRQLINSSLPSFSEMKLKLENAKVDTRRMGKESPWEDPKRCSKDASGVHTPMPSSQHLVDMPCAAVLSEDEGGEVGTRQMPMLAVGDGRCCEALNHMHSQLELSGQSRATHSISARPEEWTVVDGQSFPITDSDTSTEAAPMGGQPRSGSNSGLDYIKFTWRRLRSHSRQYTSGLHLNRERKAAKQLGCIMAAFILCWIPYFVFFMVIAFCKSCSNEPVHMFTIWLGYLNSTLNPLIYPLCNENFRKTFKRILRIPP

mice [11] = experiment: Apomorphine-induced climbing; type: in vivo; conditions: po
5-HT2C receptor = molecular target: T3, 5-HT2C receptor (Rattus norvegicus, UniProt P08909); experiment: biochemical
T3 sequence (P08909 33-460): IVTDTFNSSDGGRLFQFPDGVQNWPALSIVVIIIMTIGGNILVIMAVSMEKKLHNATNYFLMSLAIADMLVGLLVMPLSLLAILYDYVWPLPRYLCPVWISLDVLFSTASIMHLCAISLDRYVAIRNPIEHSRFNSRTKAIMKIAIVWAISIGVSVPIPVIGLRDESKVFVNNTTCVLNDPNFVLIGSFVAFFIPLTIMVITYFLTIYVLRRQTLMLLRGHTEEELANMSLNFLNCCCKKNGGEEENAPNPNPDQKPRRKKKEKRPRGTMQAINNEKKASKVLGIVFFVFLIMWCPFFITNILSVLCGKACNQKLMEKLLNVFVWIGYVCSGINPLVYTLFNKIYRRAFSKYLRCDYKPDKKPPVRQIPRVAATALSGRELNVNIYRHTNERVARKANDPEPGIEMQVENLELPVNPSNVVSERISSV

5-HT1A receptor [12] = molecular target: T4, 5-HT1A receptor (Homo sapiens, UniProt P08908); experiment: cell-based
T4 sequence (P08908 1-422): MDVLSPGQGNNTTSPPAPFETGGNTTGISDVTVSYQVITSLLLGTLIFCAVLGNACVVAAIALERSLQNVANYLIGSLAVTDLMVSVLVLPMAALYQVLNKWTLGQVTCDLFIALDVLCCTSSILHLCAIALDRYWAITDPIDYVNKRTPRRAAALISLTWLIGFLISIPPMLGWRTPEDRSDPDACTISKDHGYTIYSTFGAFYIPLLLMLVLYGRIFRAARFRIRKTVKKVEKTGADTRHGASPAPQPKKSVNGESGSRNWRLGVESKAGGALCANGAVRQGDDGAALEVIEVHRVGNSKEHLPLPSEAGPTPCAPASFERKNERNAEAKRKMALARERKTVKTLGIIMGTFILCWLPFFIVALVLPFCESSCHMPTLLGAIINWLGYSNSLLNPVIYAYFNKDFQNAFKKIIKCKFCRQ

hH3R = hH3R (Homo sapiens, UniProt Q9Y5N1); experiment: H3 functional activity
Chain of hH3R (Q9Y5N1 whole entry): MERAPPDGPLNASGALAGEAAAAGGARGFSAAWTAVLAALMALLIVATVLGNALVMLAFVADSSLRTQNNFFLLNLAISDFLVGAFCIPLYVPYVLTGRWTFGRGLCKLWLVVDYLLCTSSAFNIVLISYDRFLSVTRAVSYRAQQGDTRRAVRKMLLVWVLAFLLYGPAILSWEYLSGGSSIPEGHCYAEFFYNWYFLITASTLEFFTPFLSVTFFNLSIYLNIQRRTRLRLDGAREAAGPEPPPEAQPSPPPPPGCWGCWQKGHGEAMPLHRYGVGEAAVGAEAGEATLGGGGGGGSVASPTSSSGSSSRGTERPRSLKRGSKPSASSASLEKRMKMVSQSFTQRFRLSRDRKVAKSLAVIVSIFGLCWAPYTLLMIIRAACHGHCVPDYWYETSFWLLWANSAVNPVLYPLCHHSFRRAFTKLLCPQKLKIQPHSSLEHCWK

5-HT6 receptor [13] = molecular target: T1, 5-HT6 receptor; experiment: cell-based
mice [14] = experiment: Acute toxicity; conditions: oral, 24 h
mice [15] = experiment: Serum prolactin after 28 days of administration; type: in vivo; conditions: oral
rats [16] = experiment: Conditioned avoidance response; type: in vivo; conditions: po

T1 sequence (P50406 whole entry): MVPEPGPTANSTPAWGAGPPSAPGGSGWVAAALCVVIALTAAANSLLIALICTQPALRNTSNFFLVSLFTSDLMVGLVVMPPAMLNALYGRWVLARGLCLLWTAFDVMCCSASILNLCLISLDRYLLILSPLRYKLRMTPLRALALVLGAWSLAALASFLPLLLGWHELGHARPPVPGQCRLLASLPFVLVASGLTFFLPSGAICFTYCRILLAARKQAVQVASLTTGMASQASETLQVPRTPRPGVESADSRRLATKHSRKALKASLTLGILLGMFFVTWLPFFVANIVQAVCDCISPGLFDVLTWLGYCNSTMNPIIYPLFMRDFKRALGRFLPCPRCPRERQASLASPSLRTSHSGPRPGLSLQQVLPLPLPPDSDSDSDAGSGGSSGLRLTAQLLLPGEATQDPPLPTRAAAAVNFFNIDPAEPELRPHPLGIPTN
Chain of 5-HT2A receptor (Rattus norvegicus, UniProt P14842) (P14842 whole entry): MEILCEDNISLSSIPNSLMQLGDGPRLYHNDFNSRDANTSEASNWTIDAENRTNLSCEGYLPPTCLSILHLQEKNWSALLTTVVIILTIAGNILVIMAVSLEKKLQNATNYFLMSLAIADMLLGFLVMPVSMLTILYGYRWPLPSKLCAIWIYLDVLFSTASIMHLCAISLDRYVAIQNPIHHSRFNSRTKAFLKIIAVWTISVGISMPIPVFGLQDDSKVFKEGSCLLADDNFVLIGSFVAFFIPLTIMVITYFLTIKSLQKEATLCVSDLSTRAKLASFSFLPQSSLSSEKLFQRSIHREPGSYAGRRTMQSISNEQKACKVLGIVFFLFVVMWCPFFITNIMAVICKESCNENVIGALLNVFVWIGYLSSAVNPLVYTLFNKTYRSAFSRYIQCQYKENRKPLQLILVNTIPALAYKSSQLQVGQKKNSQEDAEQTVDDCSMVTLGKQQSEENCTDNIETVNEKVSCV
Chain of H3 receptor (Q9QYN8 whole entry): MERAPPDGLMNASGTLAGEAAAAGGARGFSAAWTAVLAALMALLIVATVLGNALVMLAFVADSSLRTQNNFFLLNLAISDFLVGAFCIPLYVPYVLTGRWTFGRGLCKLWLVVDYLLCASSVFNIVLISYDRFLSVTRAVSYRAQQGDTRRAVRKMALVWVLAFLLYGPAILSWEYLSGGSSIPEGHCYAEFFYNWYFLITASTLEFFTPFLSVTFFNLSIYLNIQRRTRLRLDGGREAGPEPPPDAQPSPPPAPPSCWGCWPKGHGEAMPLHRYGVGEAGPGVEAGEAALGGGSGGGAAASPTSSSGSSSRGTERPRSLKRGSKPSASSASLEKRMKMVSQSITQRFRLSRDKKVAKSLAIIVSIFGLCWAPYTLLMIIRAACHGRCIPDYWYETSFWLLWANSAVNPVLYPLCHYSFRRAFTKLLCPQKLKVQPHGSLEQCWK

Ki (5-HT6 receptor [1]) [nM]	Ki (H3 receptor) [nM]	Ki (5-HT2A receptor [2]) [nM]	Ki (5-HT1A receptor [3]) [nM]	Ki (D2 receptor [4]) [nM]	Compound	other results
383 ± 34.6	92.9 ± 3.6	259 ± 14	155 ± 15.2	100 ± 7	Fc1cc(CN2CCCC2)ccc1OCCCN1CCN(c2cccc3sccc23)CC1 [Compound 3c]	
354 ± 65.8	54.4 ± 2	262 ± 17.5	144 ± 10.4	98.7 ± 6.8	Fc1cc(OCCCN2CCN(c3cccc4sccc34)CC2)ccc1CN1CCCC1 [Compound 3d]	
376 ± 58.3	75.3 ± 8.5	268 ± 20.2	185 ± 16.3	120 ± 15	Clc1cc(OCCCN2CCN(c3cccc4sccc34)CC2)ccc1CN1CCCC1 [Compound 3f]	
462 ± 55.7	62.5 ± 5	129 ± 15.1	149 ± 11.7	99.5 ± 8.4	COc1cc(CN2CCCC2)ccc1OCCCN1CCN(c2cccc3sccc23)CC1 [Compound 3g]	
384 ± 51.3	53 ± 6.3	186 ± 20.1	135 ± 10.5	91.1 ± 4.5	c1cc(N2CCN(CCCOc3ccc(CN4CCCC4)cc3)CC2)c2ccsc2c1 [Compound 3i]	
385 ± 51	85 ± 9.8	324 ± 27.5	305 ± 28.2	138 ± 30.1	Cc1cc(CN2CCCCC2)ccc1OCCCN1CCN(c2cccc3sccc23)CC1 [Compound 3j]	
389 ± 63.2	88.4 ± 10.1	175 ± 25.3	285 ± 15.7	197 ± 15.5	Fc1cc(CN2CCCCC2)ccc1OCCCN1CCN(c2cccc3sccc23)CC1 [Compound 3l]	
365 ± 55.6	81.5 ± 6.5	146 ± 11.5	213 ± 24.3	110 ± 8.9	Fc1cc(OCCCN2CCN(c3cccc4sccc34)CC2)ccc1CN1CCCCC1 [Compound 3m]	
416 ± 81.3		198 ± 16.9	229 ± 25.8	144 ± 15	COc1cc(CN2CCCCC2)ccc1OCCCN1CCN(c2cccc3sccc23)CC1 [Compound 3p]	
336 ± 65.3	12.1 ± 1.5		16.7 ± 1.8	17.5 ± 1.9	c1cc(N2CCN(CCCOc3ccc(CN4CCOCC4)cc3)CC2)c2ccsc2c1 [Compound 3w]	novelty discrimination index (NDI) (rats [5]; 0.3 and 1.0 mg kg^−1): obvious increase; effect on total exploration time during the acquisition trial (rats [5]; 1.0–10.0 mg kg^−1): no obvious effect; difference in exploration times for novel and familiar objects, retention trial (rats [5]; low dose 0.1 mg kg^−1): no significant difference; CAT: catalepsy ED50 (mice [6]): 27.5 mg/kg; MK-801: MK-801-induced hyperactivity ED50 (mice [7]): 0.17 mg/kg; Ki (α1 receptor): 406 ± 60.8 nM; IC50 (D2 receptor [8]): 11.6 nM; IC50 (5-HT2A receptor [9]): 142 nM; weight gain (mice [10]): negligible weight gain; Ki (H1 receptor): 820 ± 48.7 nM; APO: apomorphine-induced climbing ED50 (mice [11]): 0.28 mg/kg; Ki (5-HT2C receptor): 572 ± 91.5 nM; IC50 (5-HT1A receptor [12]): 218 nM; IC50 (hH3R): 232 nM; IC50 (5-HT6 receptor [13]): 413 nM
					O=C(CCCN1CCC(O)(c2ccc(Cl)cc2)CC1)c1ccc(F)cc1 [Haloperidol, haloperidol]	CAT: catalepsy ED50 (mice [6]): 0.51 mg/kg; MK-801: MK-801-induced hyperactivity ED50 (mice [7]): 0.11 mg/kg; APO: apomorphine-induced climbing ED50 (mice [11]): 0.09 mg/kg; LD50 (mice [14]): 21.0 mg/kg
					Cc1nc2n(c(=O)c1CCN1CCC(c3noc4cc(F)ccc34)CC1)CCCC2 [Risperidone, risperidone]	serum prolactin levels (mice [15]): significant increase; CAT: catalepsy ED50 (mice [6]): 0.51 mg/kg; CAT: catalepsy ED50 (mice [6]; listed as risperidone): 1.15 mg/kg; MK-801: MK-801-induced hyperactivity ED50 (mice [7]): 0.02 mg/kg; weight gain (mice [10]): significant weight gain; APO: apomorphine-induced climbing ED50 (mice [11]): 0.05 mg/kg; LD50 (mice [14]): 82.0 mg/kg; CAR: conditioned avoidance response ED50 (rats [16]): 0.65 mg/kg; CAR: conditioned avoidance response ED50 (rats [16]; listed as risperidone): 2.1 mg/kg
					CCN(C)C(=O)Oc1cccc([C@H](C)N(C)C)c1 [rivastigmine, reference compound]	novelty discrimination index (NDI) (rats [5]; 0.1 and 0.3 mg kg^−1): obvious increase; exploration time for novel things vs vehicle, retention trial (rats [5]; 0.1 to 3.0 mg kg^−1): longer exploration
